# US20030125572A1, “Diester compounds of maleic acid (or fumaric acid)” (SENJU PHARMACEUTICAL CO., LTD., priority 1999, published 2003)
# Structures can show the parent of a compound that is named as a salt.
# What was measured:
# [1] = system: mouse auricule inflammation; test: Inflammation model of mouse auricule (PMA-induced edema); type: in vivo; settings: for Inhibition rate (%): auricule edematization, against control (methanol), 0.5% solution topically, 24 hours
# Description: The compound of Example 1 is dissolved in ethanol to the concentration of 0.5%.
# 6-Weeks aged male mice of ddy strain as procured from SLC CO. are subjected to the test.
# In order to cause inflammation, a solution (100 μg/mL) of phorbol 12-myristate 13-acetate (PMA) in acetone is applied in 10-μl portions (20 μl in total per mouse) onto the inside and outside of right-hand auricule of each mouse in such a manner that the solution may extend over the whole auricule. 24 Hours after causing inflammation, the thickness of right-hand auricule of each mouse is measured with use of a dial thickness gauge, and the edematization rate is calculated based on the thickness before causing inflammation.
# The test substance is applied in 10-μl portions (20 μl in total per mouse) onto the inside and outside of right-hand auricule of each mouse.
# [2] = DPPH radical scavenging capacity; settings: for Radical scavenging capacity: DPPH, 20 min, absorbance at 517 nm
# Description: The Compound is tested for the radical scavenging capacity against the stabilized radical of 1,1-diphenyl-2-picrylhydro radicals (DPPH).
# The compound of Example 1 is dissolved in ethanol to the concentrations ranging from 10^−2 to 10^−5 M.
# The test is carried out in accordance with the procedure of Blois, M. S., Nature: 181, 1199 […].
# Added to 300 μl of a sample solution is 2.7 ml of a 0.011 mM ethanol solution of DPPH or a stabilized radical, and the solution is stirred and left on standing for 20 min., followed by measurement of absorbance at a wavelength of 517 nm. The radical scavenging rate of the sample solution is determined by the following equation:
# Radical scavenging rate (%)=(absorbance of control−absorbance of the sample solution[…])×100
compound,measurement,setting,value
"Cc1c(C)c2c(c(C)c1OC(=O)/C=C\C(=O)OC1=C(O)[C@@H]([C@@H](O)CO)OC1=O)CCC(C)(CCCC(C)CCCC(C)CCCC(C)C)O2 (stereo partly drawn) [Example 1, α-Tocopheryl L-Ascorbic Acid-2-O-Maleate (or Fumarate)]",Inhibition rate (%),[1]; listed as Compound of Example 1,83.8%
same,Inhibition rate (%),[1]; listed as the Compound,83.3%
same,Edematization rate (%),"[1]; male ddy mice, PMA on right auricule, 24 hours after causing inflammation, 0.5% solution applied topically, 20 μl per mouse, mean ± S.E. (n = 8)",26.9 ± 6.2 %
same,IC50,[2]; DPPH radical,~560 µM
same,Radical scavenging capacity,[2]; final concn. 10 μM,5.2%
same,Radical scavenging capacity,[2]; final concn. 100 μM,10.8%
same,Radical scavenging capacity,[2]; final concn. 300 μM,29.5%
same,Radical scavenging capacity,[2]; final concn. 1000 μM,61.4%
